Data taken from ChEMBL document CHEMBL1155919, “Inhibition of human mitochondrial carbonic anhydrases VA and VB with para-(4-phenyltriazole-1-yl)-benzenesulfonamide derivatives” (Bioorg Med Chem Lett, 2008).

How the values were obtained:
[1] = molecular target: Carbonic anhydrase 5A, mitochondrial (Homo sapiens, UniProt P35218)
Carbonic anhydrase 1 = Carbonic anhydrase 1 (Homo sapiens, UniProt P00915)
[2] = molecular target: Carbonic anhydrase 5B, mitochondrial (Homo sapiens, UniProt Q9Y2D0)
Carbonic anhydrase 2 = Carbonic anhydrase 2 (Homo sapiens, UniProt P00918)

Carbonic anhydrase 5A, mitochondrial, sequence (P35218 whole entry): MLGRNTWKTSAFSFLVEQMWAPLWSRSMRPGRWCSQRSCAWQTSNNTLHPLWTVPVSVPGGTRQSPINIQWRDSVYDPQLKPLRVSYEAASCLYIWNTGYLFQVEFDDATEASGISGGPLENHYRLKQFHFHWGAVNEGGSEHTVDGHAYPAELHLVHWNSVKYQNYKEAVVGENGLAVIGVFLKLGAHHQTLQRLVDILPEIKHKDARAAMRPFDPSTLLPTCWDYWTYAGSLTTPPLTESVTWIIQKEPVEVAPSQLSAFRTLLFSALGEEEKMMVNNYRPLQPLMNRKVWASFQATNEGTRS
Carbonic anhydrase 5B, mitochondrial, sequence (Q9Y2D0 whole entry): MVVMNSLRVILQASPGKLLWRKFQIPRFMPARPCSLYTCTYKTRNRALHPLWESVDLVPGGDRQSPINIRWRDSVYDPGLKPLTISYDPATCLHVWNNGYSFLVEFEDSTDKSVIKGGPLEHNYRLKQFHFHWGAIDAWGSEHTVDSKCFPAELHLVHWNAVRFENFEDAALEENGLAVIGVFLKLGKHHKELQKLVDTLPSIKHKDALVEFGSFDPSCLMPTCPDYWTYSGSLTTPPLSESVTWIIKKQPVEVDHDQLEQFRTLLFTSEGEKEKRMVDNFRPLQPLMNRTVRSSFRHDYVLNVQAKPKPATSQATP
Carbonic anhydrase 1, sequence (P00915 whole entry): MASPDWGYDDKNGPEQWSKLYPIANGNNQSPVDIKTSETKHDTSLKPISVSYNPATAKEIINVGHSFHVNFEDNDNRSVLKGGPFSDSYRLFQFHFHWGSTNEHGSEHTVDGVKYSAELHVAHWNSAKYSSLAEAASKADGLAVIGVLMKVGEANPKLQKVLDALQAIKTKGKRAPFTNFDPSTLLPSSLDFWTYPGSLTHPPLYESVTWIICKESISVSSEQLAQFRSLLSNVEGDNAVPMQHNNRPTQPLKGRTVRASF

| Structure (SMILES) | Ki [1] [nM] | Ki (Carbonic anhydrase 1) [nM] | Ki [2] [nM] | Ki (Carbonic anhydrase 2) [nM] |
| --- | --- | --- | --- | --- |
| Cc1ccc(-c2cn(-c3ccc(S(N)(=O)=O)cc3)nn2)cc1 | 12.8 | 2100 | 10.6 |  |
| NS(=O)(=O)c1ccc(-n2cc(-c3ccc(F)cc3)nn2)cc1 | 14.2 | 4600 | 11.2 | 40.3 |
| COc1ccc(-c2cn(-c3ccc(S(N)(=O)=O)cc3)nn2)cc1 | 10.6 | 2200 | 51.8 | 8.4 |
| NS(=O)(=O)c1ccc(-n2cc(-c3ccccc3)nn2)cc1 | 17.8 | 5100 | 10.6 |  |
